Read-outs that look alike come from different tables or passages of the source.
How the values were obtained:
TRPC7 = biological target: T1, TRPC7 (Homo sapiens, UniProt Q9HCX4); assay: Carbachol (Cch)-induced Sr2+ entry in Fura2-loaded HEK293 cells overexpressing TRPC7; type: cell-based; settings: versus DAG-mediated activation, FIG. 2D, E
T1 construct: expressed in transfected cells; host or cells: HEK293 (transient transfection)
T1 sequence (Q9HCX4 1-862): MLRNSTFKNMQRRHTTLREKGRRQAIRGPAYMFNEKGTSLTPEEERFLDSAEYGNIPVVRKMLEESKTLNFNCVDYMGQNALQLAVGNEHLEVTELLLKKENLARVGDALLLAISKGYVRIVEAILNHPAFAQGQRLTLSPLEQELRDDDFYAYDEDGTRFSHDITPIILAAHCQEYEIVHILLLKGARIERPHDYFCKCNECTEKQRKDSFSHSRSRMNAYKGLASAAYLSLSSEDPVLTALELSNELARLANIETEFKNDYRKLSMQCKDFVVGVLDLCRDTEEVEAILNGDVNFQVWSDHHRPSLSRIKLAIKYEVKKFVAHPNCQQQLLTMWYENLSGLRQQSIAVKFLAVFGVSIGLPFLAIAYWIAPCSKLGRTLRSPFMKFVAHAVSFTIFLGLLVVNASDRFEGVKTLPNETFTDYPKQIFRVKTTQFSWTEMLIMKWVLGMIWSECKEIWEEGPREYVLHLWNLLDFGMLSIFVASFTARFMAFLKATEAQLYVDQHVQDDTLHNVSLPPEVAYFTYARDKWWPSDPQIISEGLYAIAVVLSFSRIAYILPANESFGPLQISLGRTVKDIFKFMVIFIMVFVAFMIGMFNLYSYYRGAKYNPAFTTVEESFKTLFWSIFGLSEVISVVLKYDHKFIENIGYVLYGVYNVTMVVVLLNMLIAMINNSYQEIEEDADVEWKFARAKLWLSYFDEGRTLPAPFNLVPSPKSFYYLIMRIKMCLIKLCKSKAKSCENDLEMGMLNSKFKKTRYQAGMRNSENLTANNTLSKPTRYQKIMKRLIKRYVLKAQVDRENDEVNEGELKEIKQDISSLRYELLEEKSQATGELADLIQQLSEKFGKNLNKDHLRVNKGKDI
Text: Inhibition of GPCR-mediated TRPC activation. Since TRPC4 and TRPC5 are not activated by DAG, we utilized carbachol (Cch)-induced Sr^2+ entry to determine their sensitivity to ELP-004. Since Cch drives ER Ca^2+ release, Cch-induced Ca^2+ entry includes both store-operated and TRPC-mediated components. To specifically measure ion entry through TRPC channels, we took advantage of the lack of ion selectivity of TRPC channel and substituted Sr^2+ for Ca^2+ as previously described^7. As expected, Cch stimulated rapid ER Ca^2+ release immediately upon addition in both TRPC4- and TRPC5-expressing cells (FIG. 2A,B). The subsequent addition of Sr^2+ (3 mM) lead to a significant increase in Fura ratio with a substantially larger response in TRPC5-expressing than TRPC4-expressing cells. […] Therefore, we assessed inhibition of TRPC7 by ELP-004 using the Cch Sr^2+ assay (FIG. 2D, E). […]
TRPC activity assay—Cells grown on glass coverslips were incubated in a cation-safe buffer (107 mM NaCl, 7.2 mM KCl, 1.2 mM MgCl2, 11.5 mM Glucose, 20 mM HEPES-NaOH, 1 mM CaCl2), pH 7.2) and loaded with Fura2-acetoxymethylester (Fura2-AM; 2 μM) for 30 min at 24° C. as previously described^10,11. […] Ca^2+/Sr^2+ measurements were taken using a Leica DMI 6000B fluorescence microscope controlled by Slidebook software (Intelligent Imaging Innovations, Denver, CO). […]

Jurkat cells = type: cell-based; set-up: dose or concentration left out as unconfirmed; settings: human
Protocol: ELP-004 (N-MeDCPA) was specifically developed to preclude metabolizing to two toxic metabolites, N—OH-dichloroaniline and 6-OH-dichloroaniline. In vitro assays for toxicity caused by ELP-004 using Jurkat cells show 50% toxicity at […] and <2% toxicity at […]. […] Thus, ELP-004 has high potential for use as a drug to prevent or reduce bone erosion.

CCC(=O)N(C)c1ccc(Cl)c(Cl)c1 [ELP-004, N-(3,4-dichlorophenyl)-N-methylpropanamide]
increase in sensitivity to ELP-004 in the Cch Sr2+ assay (TRPC7): 3 order of magnitude | toxicity (Jurkat cells; 200): < 2% | toxicity (Jurkat cells; 800): 50%

Reference: patent publication US20240058283A1, “THE MODE OF ACTION OF N-MeDCPA ON TRPC CHANNELS” (West Virginia University Board of Governors on Behalf of …, priority 2022, published 2024)
